Measurements as given in patent publication US9849083B2, “Sublingual administration of statins” (LondonPharma Ltd., priority 2011, dated 2017).
Structures can show the parent of a compound that is named as a salt. Where two headings read alike, the source gives them in different places. Values belong to the compound of their own block, whether it stands above or below them.

Assays:
physchem = conditions: aqueous with cosolvent or surfactant or cyclodextrin
clinical = conditions: male, human, in vivo; for Tmax: Tmax (median)
[1] = Safety and tolerability in phase 1 trial of sublingual statin sprays; format: in vivo, human; conditions: all mild; simvastatin AE after 40 mg; fluvastatin with both doses
Method: The secondary objectives of this study were to: • establish the safety, tolerability, local tolerance and taste acceptance of the study medications
Safety was evaluated by adverse event (AE) monitoring, evaluation of any medically significant changes, based on physical examination findings, vital signs, and electrocardiograms (ECGs) assessments, clinical laboratory testing, local tolerance and taste acceptance.
Safety data was summarised by descriptive methods; continuous variables by summary statistics and categorical data by absolute and relative frequencies.

[2] = human, in vivo; for Tmax (median): male
[3] = Phase 1 pharmacokinetic study of sublingual statin sprays in healthy male subjects; conditions: for AUC(0-inf) / AUC(0-t) / Cmax / Tmax: male, human, plasma; for Tmax: Tmax (median); for Tmax / Tmax (median): sublingual spray, healthy male subjects, simvastatin acid measured after simvastatin spray
[4] = Chemical stability / compatibility of the statin in formulations; format: physicochemical
[5] = Solubility of the statin in formulation carriers; conditions: aqueous-based formulation, water

solubility (physchem): ≥ 25 mg/mL
Structure (SMILES): CC(C)n1c(/C=C/C(O)CC(O)CC(=O)O)c(-c2ccc(F)cc2)c2ccccc21 (centres unmarked) [Fluvastatin (sodium salt), fluvastatin sodium]

AUC(0-inf) (clinical; 10 mg): 37.2 ng·h/mL
AUC(0-t) (clinical; 10 mg): 36.3 ng·h/mL
Cmax (clinical; 10 mg): 34.2 ng/mL
half-life (clinical; 10 mg): 1.18 h
Tmax (clinical; 10 mg): ~0.5 h
AUC(0-inf) (clinical; 25 mg): 91.7 ng·h/mL
AUC(0-t) (clinical; 25 mg): 89.9 ng·h/mL
Cmax (clinical; 25 mg): 88 ng/mL
half-life (clinical; 25 mg): 1.4 h
Tmax (clinical; 25 mg): ~0.5 h
CL/F (mean) ([2]; 10 mg): 376.22 L/h
CL/F (mean) ([2]; 25 mg): 363.21 L/h
Tmax (median) ([2]; 10 mg): 0.56 h
Tmax (median) ([2]; 25 mg): 0.57 h
Structure (SMILES): CC(C)n1c(/C=C/C(O)CC(O)CC(=O)O)c(-c2ccc(F)cc2)c2ccccc21 (centres unmarked) [Fluvastatin, fluvastatin]
Treatment-emergent AEs reported [1]: 5 related and 2 unrelated

half-life (clinical; 20 mg): 1.58 h
half-life (clinical; 40 mg): 1.32 h
AUC(0-inf) ([3]; 20 mg): 31.2 ng·h/mL
AUC(0-t) ([3]; 20 mg): 30 ng·h/mL
Cmax ([3]; 20 mg): 12.3 ng/mL
Tmax ([3]; 20 mg, 20 mg): 1.3 h
AUC(0-inf) ([3]; 40 mg): 80.6 ng·h/mL
AUC(0-t) ([3]; 40 mg): 78.8 ng·h/mL
Cmax ([3]; 40 mg): 44.5 ng/mL
Tmax ([3]; 40 mg, 40 mg): 1.3 h
Tmax (median) ([3]; 20 mg): 1.33 h
Tmax (median) ([3]; 40 mg): 1.29 h
CL/F (mean) ([2]; 20 mg): 685.48 L/h
CL/F (mean) ([2]; 40 mg): 820.32 L/h
Structure (SMILES): CC[C@H](C)C(=O)O[C@H]1C[C@H](O)C=C2C=C[C@H](C)[C@H](CC[C@@H](O)C[C@@H](O)CC(=O)O)[C@H]21 [Pravastatin, pravastatin]
Treatment-emergent AEs reported [1]: none

AUC(0-inf) (clinical; 20 mg): 37.7 ng·h/mL
AUC(0-t) (clinical; 20 mg): 21.3 ng·h/mL
Cmax (clinical; 20 mg): 6.1 ng/mL
Vd/F (clinical; 20 mg): 3960 L
half-life (clinical; 20 mg): 5.73 h
Tmax (clinical; 20 mg): 2.19 h
AUC(0-inf) (clinical; 40 mg): 47.6 ng·h/mL
AUC(0-t) (clinical; 40 mg): 32.5 ng·h/mL
Cmax (clinical; 40 mg): 9.88 ng/mL
Vd/F (clinical; 40 mg): 4760 L
half-life (clinical; 40 mg): 3.65 h
Tmax (clinical; 40 mg): 3.88 h
CL/F (mean) ([2]; 20 mg): 609.03 L/h
CL/F (mean) ([2]; 40 mg): 921.93 L/h
Structure (SMILES): CCC(C)(C)C(=O)O[C@H]1C[C@@H](C)C=C2C=C[C@H](C)[C@H](CC[C@@H](O)C[C@@H](O)CC(=O)O)[C@H]21 [Simvastatin Acid, simvastatin acid]

Vd/F (clinical; 20 mg): 1980 L
half-life (clinical; 20 mg): 1.8 h
Vd/F (clinical; 40 mg): 2070 L
half-life (clinical; 40 mg): 1.9 h
Tmax ([3]; 20 mg, 20 mg): 1.88 h
Tmax ([3]; 40 mg, 40 mg): 1.88 h
CL/F (mean) ([2]; 20 mg): 744.33 L/h
CL/F (mean) ([2]; 40 mg): 764.67 L/h
Structure (SMILES): CCC(C)(C)C(=O)O[C@H]1C[C@@H](C)C=C2C=C[C@H](C)[C@H](CC[C@@H]3C[C@@H](O)CC(=O)O3)[C@H]21 [Simvastatin, simvastatin]
Treatment-emergent AEs reported [1]: one

Reaction with ethanol [4]: react with ethanol
solubility [5]: ≥ 150 mg/mL
Structure (SMILES): CC[C@H](C)C(=O)O[C@H]1C[C@H](O)C=C2C=C[C@H](C)[C@H](CC[C@@H](O)C[C@@H](O)CC(=O)O)[C@H]21 [pravastatin sodium]
